Data on three compounds can be found in article PMC12210912, “Pharmacologic properties and inhibitory activity of 6-azasteroids against Mycobacterium leprae in vivo and in vitro” (Microbiology Spectrum, 2025).

One data set has as its target T1, LXRβ (Homo sapiens, UniProt P55055).
T1 construct: Eurofins (assay provider); host or cells: E. coli
T1 sequence (P55055 1-460): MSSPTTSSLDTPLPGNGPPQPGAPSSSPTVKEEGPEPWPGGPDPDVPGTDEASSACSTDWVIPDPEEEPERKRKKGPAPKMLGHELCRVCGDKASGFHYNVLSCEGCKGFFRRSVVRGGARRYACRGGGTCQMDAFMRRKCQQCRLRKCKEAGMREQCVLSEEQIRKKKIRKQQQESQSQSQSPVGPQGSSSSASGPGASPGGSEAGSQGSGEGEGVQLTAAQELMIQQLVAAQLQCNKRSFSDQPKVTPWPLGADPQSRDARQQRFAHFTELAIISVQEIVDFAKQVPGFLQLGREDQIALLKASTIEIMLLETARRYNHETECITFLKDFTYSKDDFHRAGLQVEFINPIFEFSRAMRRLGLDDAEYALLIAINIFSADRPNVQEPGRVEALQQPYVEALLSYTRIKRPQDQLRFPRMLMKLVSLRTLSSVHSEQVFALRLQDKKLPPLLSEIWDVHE
The experiment in a line: LXRβ radioligand binding inhibition. Particulars: [3H]T0901317 binding, recombinant protein; for % inhibition observed, LXRβ: 10 µM; for inhibition at 10 µM: read-out: % inhibition observed, LXRβ. Here is the method:
(§1) Four nuclear receptors: glucocorticoid, androgen, LXRα, and LXRβ were assayed. Inhibition of agonist binding to each of the receptors was carried out following a standard protocol by Eurofins, Inc., USA. Compounds were tested at 10 µM. Compound binding was measured by scintillation counting and was calculated as a % inhibition of the binding of a radioactively labeled ligand specific for each target. Percent inhibition of control specific binding was expressed as
(§2) 100−[(measured specific binding)/(control specific binding)∗100]
(§3) where measured specific binding is the amount of radioactive ligand binding obtained in the presence of test compounds.
(§4) (iii) LXRα (human) recombinant protein expressed in E. coli; agonist radioligand 20 nM [^3H] […] (iv) LXRβ (human) recombinant protein expressed in E. coli; agonist radioligand 20 nM [^3H]

The target of a further data set is T2, LXRα (Homo sapiens, UniProt Q13133).
T2 construct: Eurofins (assay provider); host or cells: E. coli
T2 sequence (Q13133 1-447): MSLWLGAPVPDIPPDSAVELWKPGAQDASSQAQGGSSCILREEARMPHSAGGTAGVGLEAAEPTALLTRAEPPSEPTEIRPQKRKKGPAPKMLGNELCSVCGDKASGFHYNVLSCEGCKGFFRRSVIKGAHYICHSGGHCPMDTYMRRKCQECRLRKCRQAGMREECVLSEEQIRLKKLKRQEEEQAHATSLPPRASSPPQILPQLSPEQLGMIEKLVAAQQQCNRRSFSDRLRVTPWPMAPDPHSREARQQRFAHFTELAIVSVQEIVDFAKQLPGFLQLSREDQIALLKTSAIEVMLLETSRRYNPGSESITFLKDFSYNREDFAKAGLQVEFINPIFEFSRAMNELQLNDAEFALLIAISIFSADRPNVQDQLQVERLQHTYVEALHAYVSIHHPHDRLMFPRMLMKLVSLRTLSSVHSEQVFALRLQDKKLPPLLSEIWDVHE
The data set can be described thus: LXRα radioligand binding inhibition. Particulars: [3H]T0901317 binding, recombinant protein; for % inhibition observed, LXRα: 10 µM; for inhibition at 10 µM: read-out: % inhibition observed, LXRα. Here is the method:
as §1, §2, §3, §4

For the next data set, the system named is THP-1 cells. Particulars: cited from earlier work.
A short description of data set [1]: stability in human liver microsomes. It is filed as in vitro ADME. Particulars: both sexes. Here is the method:
Experiments were performed by Pharmaron, Inc., China. […] Negative control samples were prepared by replacing the NADPH solution with ultrapure H2O. The negative controls were used to exclude the confounding variable of test compound instability. Experiments involving NADPH were carried out in duplicate. Negative controls were prepared in singlet. Aliquots (90 µL) were taken at 0, 15, 30, 45, and 60 min of incubation. The microsomal reaction in each aliquot was stopped by the addition of four volumes of cold acetonitrile containing internal standards (100 nM alprazolam, 200 nM imipramine, 200 nM labetalol, and 2 µM ketoprofen). The samples were centrifuged at 3,220 × g for 40 min, and an aliquot (90 µL) of the supernatant was mixed with 90 µL of ultrapure H2O. The resulting mixture was used for liquid chromatography–tandem mass spectrometry (LC-MS/MS) analysis (Shimadzu and SCIEX Triple Quad 4500). Peak areas were determined from extracted ion chromatograms. A slope, k, was determined by linear regression analysis of a plot of the natural logarithm of the remaining percentage of the parent drug versus incubation time. The in vitro t1/2 (min) was determined from the slope: in vitro t1/2=−(0.693/k) In vitro t1/2 (min, mean of duplicate determinations) was converted to in vitro intrinsic clearance (in vitro Clint, μL/(min·µg protein)) by means of the following equation : in vitro Clint=(0.693/t1/2)×(volume of incubation (μL)/amount of protein (μg))
A general note: Microsomes from liver hold many membrane-bound enzymes, among them those of drug oxidation.

Setting [2] is: human liver microsomes, pH 7.4, 1 μM, HLM 0.5 mg/mL, 37°C, 1 h, mean of duplicates, read-out: HLM stability t1/2.

Read-outs that look alike come from different tables or passages of the source.

`CC(C)(C)c1ccc(C(C)(C)C)c(NC(=O)C2CCC3C4CNC5=CC(=O)CC[C@]5(C)C4CC[C@]23C)c1` (stereo partly shown) [Compound 1]: at LXRβ, the “% inhibition observed, LXRβ” value is reported as “significantly inhibit binding” and the inhibition (in general, the relative decrease from the control value, in per cent) at 10 µM was 72%. In addition, on LXRα, the “% inhibition observed, LXRα” value was “significantly inhibit binding” and the inhibition at 10 µM came to 53%. Also, the 50% inhibitory concentration (IC50) (as a rule, the concentration that gives 50% inhibition) in the data set with THP-1 cells (read-out: Mammalian cell IC50 Cytotoxicity THP1, THP-1 cells, 72 h, Alamar Blue) was 18 µM. The half-life at 1 µM in data set [1] (microsomes, pH 7.4, HLM stability t1/2) amounted to 45 min.

`CCCN1CC2C3CCC(C(=O)Nc4cc(C(C)(C)C)ccc4C(C)(C)C)[C@@]3(C)CCC2[C@@]2(C)CCC(=O)C=C12` (stereo partly shown) [Compound 2]: on LXRβ, the “% inhibition observed, LXRβ” value is recorded as “significantly inhibit binding” and the inhibition at 10 µM was 69%. At LXRα, the “% inhibition observed, LXRα” value is “significantly inhibit binding” and the inhibition at 10 µM was determined as 64%. Further, in the data set on THP-1 cells, the IC50 is 24 µM. Further, in data set [1] (setting [2]), the half-life at 1 µM was determined as 18 min.

`C[C@]12CCC3C(CNC4=CC(=O)CC[C@@]43C)C1CCC2C(=O)NC(c1ccc(F)cc1)c1ccc(F)cc1` (stereo partly shown) [Compound 5]: on LXRβ, the “% inhibition observed, LXRβ” value is on record as “low binding”. Also, the inhibition at 10 µM at LXRβ came out at 26%; at LXRα, 11%. Moreover, the “% inhibition observed, LXRα” value on LXRα is “low binding”. For the same compound, the IC50 in the data set on THP-1 cells was 24 µM. For the same compound, the half-life at 1 µM in data set [1] (setting [2]) is 443 min; in data set [1] (human liver microsomes, pH 7.4, as stated in text, read-out: half-life in human liver microsomes) it was above 360 min.
